From article PMC9237417, “HupZ, a Unique Heme-Binding Protein, Enhances Group A Streptococcus Fitness During Mucosal Colonization” (Frontiers in Cellular and Infection Microbiology, 2022) come the findings set out here.

In one assay the target is T1, MBP-HupZ (Streptococcus pyogenes, UniProt Q9A0B9).
T1 construct: gene SPy_0844; N-terminal MBP fusion kept (pKV135); E. coli BL21(DE3); monomer on native PAGE
Briefly: UV-VIS Soret shift of heme-loaded protein. In kind it is binding. Conditions: holo protein (heme b bound); 1.6 mM imidazole as axial ligand of the heme iron; pH 7.4.

For another assay, the target named is T2, tag-less HupZ (Streptococcus pyogenes, UniProt Q9A0B9).
T2 construct: gene SPy_0844; full-length HupZ from His-MBP-HupZ, tag cut by TEV protease leaving a serine residue; expressed in E. coli; 15 kD on SDS-PAGE
The experiment in a line: UV-VIS Soret shift of heme-loaded protein. The assay is classed as binding. Conditions: holo protein (heme b bound); 1.6 mM imidazole as axial ligand of the heme iron; pH 7.4.

T1 sequence (Q9A0B9 entry or part of it): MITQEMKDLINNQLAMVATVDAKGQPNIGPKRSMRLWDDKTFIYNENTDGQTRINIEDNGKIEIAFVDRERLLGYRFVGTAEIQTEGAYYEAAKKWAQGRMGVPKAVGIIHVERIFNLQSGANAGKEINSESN
T2 sequence (Q9A0B9 entry or part of it): as above

On to `c1c[nH]cn1` [imidazole], for which the “UV-VIS Soret shift of heme-loaded protein” value is “exogenous imidazole can coordinate the iron in holo tag-less and MBP-HupZ” at MBP-HupZ; “exogenous imidazole can coordinate the iron in holo tag-less and MBP-HupZ” on tag-less HupZ.
